Measured values reported in patent US20250283052A1, “THERAPEUTIC NK CELL POPULATIONS” (Gamida Cell Ltd., priority 2021, published 2025).

What was measured:
CD62L = CD62L staining 2 hours post-thaw (FACS); type: cell-based; conditions: culturing in 7 mM NAM; 2 hours post-thaw (FIG. 2)
Description: The cells were thawed, and 2 hours post-thaw were sampled for staining against CD62L and analyzed by FACS. Assays for adhesion and migration molecules such as CD62L, CXCR-4, CD49e and the like, important for homing/engraftment and retention of cells in transplantation, are well known in the art. CD62L expression in a cell can be assayed, for example, by flow cytometry, immunodetection, quantitative cDNA amplification, hybridization and the like. In one embodiment, CD62L expression is detected in different populations of NK cells by exposure of the cells to a fluorescent-tagged specific anti-human CD62L monoclonal antibody [e.g., CD62L PE, Cat. No. 304806 from BioLegend (San Diego, CA, USA)], and sorting of the cells by fluorescent activated cell sorting (FACS). After 2 weeks in culture according to the methods of the invention, a modified procedure using inactivated autologous CD3+ cells as feeder, supplemented with OKT3 and NAM, led to an improved fold expansion, which increased the total number of viable cells obtained at harvest. The functionality of the cells in killing and ADCC was assessed by combination of NK cells with target cells BL2 (Burkitt lymphoma cell line)—at different ratios. […]

CD200R = CD200R immunophenotyping of expanded NK cells (FACS); type: cell-based; conditions: 2 weeks culture without NAM or with 2.5, 5 or 7 mM NAM (FIG. 3)
Description: Cells were cultured for 2 weeks without NAM and with 2.5 mM, 5 mM NAM or 7 mM NAM. Samples for staining against CD200R were analyzed by FACS.
The immune checkpoint receptors, CD200R and Programmed Death receptor-1 (PD-1), are exploited by tumor cells which overexpress their ligands to suppress lymphocytes anti-tumor activity. The effect of expansion with nicotinamide (NAM) on expression of immune checkpoint receptors in NK cells was assessed.

**Q.** What does the source list for NC(=O)c1cccnc1 [NAM, nicotinamide]?
**A.** expression of CD62L (CD62L): increased expression of CD62L; expression of CD200R on expanded NK cells (CD200R): down regulated
